Key:
PHA-induced cytokines = PHA-induced cytokines on PBMCs (Example F); type: cell-based, human; settings: PHA-L instead of anti-CD3/CD28 beads
Procedure: Cryopreserved human Peripheral Blood Mononuclear cells (PBMCs) from healthy adult donors were obtained from Zen Bio, Inc (Cat No. SER-PBMC-F). Cells were cultured in 96-well plates with lymphocyte media (Cat No. LYMPH-1) and were pre-treated with test materials (≤100 μM) for 2 hours and later co-treated with test materials and anti-CD3/CD28 beads (Thermo-Fisher; Cat No. 11131D) at 1:0.4 PBMC:bead ratio for 24 hours at 37° C. and 5% CO2. After incubation, cell media supernatants were harvested and used to measure cytokine levels (IL-4, IL-5, IL-10) using ELISA kits (BD Biosciences® #555194, #555157; R&D Systems® #DY317). Results were represented as percent of inhibition relative to untreated and anti-CD3/CD28 beads-only treated cells. IC50 values were determined by non-linear regression analysis using the four-parameter logistic equation.
By a similar method, but instead of anti-CD3/CD28 beads (Thermo-Fisher; Cat No. 11131D), compounds A, C, T and E were treated with LPS (Sigma Aldrich, Cat. No. LF4321) to measure inhibition of LPS-induced cytokines, and compounds C and T were treated with PHA-L (Sigma Aldrich, Cat No. 11249738001) to measure inhibition of PHA-induced cytokines.

TSLP = test: Calcipotriol-induced TSLP in vivo; settings: CD1 mice, calcipotriol 4 nmol/ear, 24 hours
Excerpt: CD1 mice were topically exposed to 4 nmol/ear Calcipotriol. Five minutes after challenge compounds were applied. Twenty-four hours later, protein samples were extracted from ear skin biopsies and analyzed for TSLP levels by ELISA method. Vehicle for compounds were 60:40 EtOH:H2O (Compound C) or 1:1 EtOH:Acetone (AN2728). Data represents average±S.E. of a representative set from 2 independent experiments (n=6 mice per group). *p value<0.05; **p value≤0.01 by Student t test compared to Calcipotriol+vehicle-only treated animals. ns equals not significant.

[1] = tested on: subjects with mild to moderate acne; test: 8-week clinical study in subjects with mild to moderate acne; type: in vivo; design: scale not given here; settings: E 1% w/w, BPO 3% w/w, human
Excerpt: Subjects used the assigned product at home for 8 weeks. Subjects returned post baseline at week 2, 4 and 8. At each visit subjects underwent expert clinical grading and test site photography. […] The severity of acne signs and symptoms on the faces of >18 yo subjects were clinically assessed by IGA scale during an 8-week Study period. In addition, UV light mode was utilized to observe porphyrins fluorescence (orange-red dots).

Compound | inhibition of PHA-induced cytokines (PHA-induced cytokines) | AVG - TSLP (TSLP; topical dose 4.0 μg/ear) | TSLP % inhb (TSLP; topical dose 4.0 μg/ear) | AVG - TSLP (TSLP; topical dose 40.0 μg/ear) | TSLP % inhb (TSLP; topical dose 40.0 μg/ear) | AVG - TSLP (TSLP; topical dose 400.0 μg/ear) | TSLP % inhb (TSLP; topical dose 400.0 μg/ear) | Investigator Global Assesment (IGA) Scale ([1]; 2 week) | Investigator Global Assesment (IGA) Scale ([1]; 4 week) | Investigator Global Assesment (IGA) Scale ([1]; 8 week) | Investigator Global Assesment (IGA) Scale ([1]; Baseline)
C/C(=C\CSC[C@H](NC(=O)N(C)CC(=O)O)C(=O)O)CCCC(C)CCCC(C)CCCC(C)C (stereo partly drawn) [Compound C, (2R)-2-{[(carboxymethyl)(methyl)carbamoyl]amino}-3-{[(2E)-3,7,11,15-tetramethylhexadec-2-en-1-yl]sulfanyl}propanoic acid] | did not show significant inhibition | 2753.6 pg/6 mm biopsy | 15% | 1156.1 pg/6 mm biopsy | 74% | 759.9 pg/6 mm biopsy | 88% |  |  |  | 
C/C(=C\CSC[C@H](NC(=O)N1CCC[C@H]1C(=O)O)C(=O)O)CCCC(C)CCCC(C)CCCC(C)C (stereo partly drawn) [Compound E] |  |  |  |  |  |  |  | 2 | 1 | 0 | 3
N#Cc1ccc(Oc2ccc3c(c2)COB3O)cc1 [AN2728, reference compound] |  | 2495.1 pg/6 mm biopsy | 51% | 2235.3 pg/6 mm biopsy | 57% | 352.1 pg/6 mm biopsy | 102% |  |  |  | 
C/C(=C\CSC[C@H](NC(=O)COCC(=O)O)C(=O)O)CCCC(C)CCCC(C)CCCC(C)C (stereo partly drawn) [Compound T] | did not show significant inhibition |  |  |  |  |  |  |  |  |  | 

Reference: patent publication US11802107B2, “Compounds and methods of use” (Signum Biosciences, Inc., priority 2017, dated 2023)
